Experimental data taken from patent US10809252B2, “Time-resolved fluorescent immunochromatographic assay rapid test kit for type I pyrethroid” (priority 2017, dated 2020).

What was measured:
[1] = test system: universal monoclonal antibody against type I pyrethroid (hybridoma cell line QW8#); test: conventional indirect competitive ELISA; format: binding, mouse
Text: To screen the target positive hybridoma cell line that is a highly specific and sensitive cell line against pyrethroid containing a diphenyl ether structure (by screening with etofenprox standard), the traditional two-step screening method was modified in this experiment. A gradient screening method was used in the indirect competitive ELISA screening process. (1) In the first step, an indirect non-competitive ELISA was used to screen the positive wells that recognized the diphenyl ether structure, but not the carrier protein (BSA). […] The positive wells with relatively small B/B0 were selected, where B is the absorbance in the control well […] etofenprox standard, and B0 is the absorbance in the wells with etofenprox standard. The cells were cloned by limiting dilution, and detected about 10 days after the cloning by using the same two-step method as described above. […]
The affinity for QW8# was determined by indirect non-competitive ELISA. […] The OD450 values measured was used as the vertical coordinates, the values of the logarithm of the antibody concentrations (mol/L) were used as the horizontal coordinates, 4 S-shaped curves corresponding to the 4 concentrations were plotted. […]

[2] = test system: Hapten-1-BSA; test: affinity constant (Ka) of the antibody by indirect non-competitive ELISA; format: binding; conditions: antibody derived from mouse ascetic fluid; plate coated with Hapten-1-BSA at 2.0, 1.0, 0.5, 0.25 μg/mL
Experimental: The affinity for QW8# was determined by indirect non-competitive ELISA. The plate was coated at 37° C. for 2 hours with Hapten-1-BSA at concentrations of 2.0, 1.0, 0.5, and 0.25 μg/mL in an amount of 100 μL/well. After the plate was blocked with a blocking solution for 1 hour, the antibody diluted with PBS (at a dilution factor of 1:2) was added to the plate and the rest steps were the same as those in indirect non-competitive ELISA. The OD450 values measured was used as the vertical coordinates, the values of the logarithm of the antibody concentrations (mol/L) were used as the horizontal coordinates, 4 S-shaped curves corresponding to the 4 concentrations were plotted. The maximum OD value (ODmax) at the top of each S-curve, that is, the concentration of the antibody that corresponds to 50% of the ODmax, was obtained from each curve. The 4 concentrations were paired, and the affinity constant (Ka) of the antibody was calculated by using the formula Ka=(n−1)/2(n[Ab′]t−[Ab]t), where [Ab′]t, and [Ab]t are antibody concentrations corresponding to 50% of two ODmax values in each group, and n is the multiple of the antigen concentration coated in each group.

Molecule: CCOc1ccc(C(C)(C)COCc2cccc(Oc3ccccc3)c2)cc1 [etofenprox]
- IC50 value of the universal monoclonal antibody [1]: 0.02086 µg/mL

Molecule: CC1(C)C(C=C(Cl)Cl)C1C(=O)OCc1cccc(Oc2ccccc2)c1 (stereo not drawn) [permethrin]
- IC50 value of the universal monoclonal antibody [1]: 0.0242 µg/mL

B1: QW8#: universal monoclonal antibody against type I pyrethroid secreted by hybridoma cell line QW8# (CCTCC C2016164), subtype IgG2a (antibody, V domains shown)
VH: QVTLKESGPGILQPSQTLSLTCSFSGFSLSTYGIGIGWIRQSSGRGLEWLAHIWWNDNRYYNIALKSRLTISKDASNNQFFLKLASVDTADIATYYCVRGYGRPFYAMDYWGQGTTVTVSS
VL: QAVVTQESALTTSPGETVTLTCRSSTGAVTTSNYVNWVQEKPDHLFTGLIGGTNNRGPGVPARFSGSLIGDKAALTITGTQTEDEAIYFCALWYSNHWVFGGGTKLTVL
- affinity (affinity constant Ka) of the antibody [2]: 2.16e+08 L/mol
